Source: patent publication US20040167226A1, “Methods for the treatment of pain and traumatic injury using benzamides and compositions containing the same” (priority 2002, published 2004)
“Also recorded” adds a separate entry of the source.

Assays:
[1] = Brain-blood distribution of Compound A in the squirrel monkey; assay type: in vivo; conditions: brain / whole blood, twice-daily 10 mg/kg po for 5 weeks, 24 h post-dose, n = 12, read-out: Brain/Blood Ratio (Mean ± SD)
Procedure: Blood-brain distribution of Compound A was assessed in the mouse, rat, and squirrel monkey by determining the concentrations of Compound A in blood and brain tissue at specific times post dose. Rats and mice received a single po dose of 30 mg/kg. The monkeys received a twice-daily 10 mg/kg po dose of Compound A for a total of 5 weeks prior to sacrifice. Brain to blood ratios for Compound A, as shown below in Table 4, show high penetration of the blood-brain barrier.

iNOS = assay: Immunohistochemistry for inflammatory marker iNOS on contused spinal cord; assay type: in vivo; conditions: rats after contusion injury; 72 h post-injury, 1 mm caudal to epicenter
Procedure: (§1) Compound A was tested in both the rat dorsal hemisection (Guth, L. et al. (1980), J. Neurosurgery 52: 73-86) and contusion models (Scheff, S. W. (2003), J. Neurotrauma 20: 179-193) for evaluation of efficacy. These models are widely used in the field of spinal cord injury and replicate many of the pathological aspects found in humans who have sustained a spinal cord injury. Rats were subjected to an experimental spinal cord injury at T8, and were given Compound A shortly thereafter. Behavioral tests to assess the locomotion deficits were performed after the lesion. At the end of the experiment, animals were sacrificed and the spinal cord was collected for histopathological analysis. […] Histological assessment of the tissue at the site of injury was also made in both the drug treated and untreated group. In particular, subsequent to the behavioral measurement, spinal cord tissue from each animal was obtained and serial transverse tissue sections were stained with either anti-neurofilament antibody or antibodies specific for the inflammatory markers, tumor necrosis factor alpha (TNFα) and for the inducible form of nitric oxide synthetase (iNOS), followed by incubation with Alexa Fluor®-conjugated secondary antibodies.
Histological assessment of the tissue at the site of injury was also made in both the drug treated and untreated group. […]

[2] = system: dorsal hemisection spinal cord injury; assay: Spinal cord injury, T8 dorsal hemisection / over dorsal hemisection, BBB locomotor score; assay type: in vivo, Sprague-Dawley rats; conditions: rats
Procedure: as §1
Female rats (Sprague-Dawley, 250-300 g) were purchased from Charles River. One week before spinal cord injury, the animals were both trained and had baseline measures taken on a locomotor behavioral test, the BBB test (Beattie Basso Bresnahan method) (Basso, D. M. et al. (1995), J. Neurotrauma 12(1): 1-21).
The BBB score is a 21-point scale representing 21 stages of locomotor recovery after spinal cord injury. The scale is based on unique combinations of scored behaviors, ranked according to time of appearance after injury. The score can be divided into three parts: from 0-8, the scores emphasize voluntary movements of hindlimb joints; from 8-14, the scores represent standing and stepping with progressively better forelimb-hindlimb coordination; from 15-21, the scores indicate greater strength and better foot placement and balance. […]

[3] = Solubility of Compound A in dosing vehicles; assay type: physicochemical
Procedure: PEG-200 formulation for i.p. administration of Compound A: PEG-200 was diluted in deionized destilled water to give a final concentration of 75% (volume/volume). Compound A was weighed to yield a final concentration of 10 mg/ml in 75% PEG-200 vehicle and sonicated for 12×30 seconds with 5 second intervals on ice to generate a Compound A suspension. 100 μL of either Compound A suspension or control vehicle (75% PEG-200) per 20 grams of mice (body weight) was administered via i.p., thus yielding a dose of 50 mg/kg (body weight).
Cremophor EL/alcohol/saline formulation for i.p. administration of Compound A: 40 mg/ml, 20 mg/ml or 10 mg/ml of Compound A was dissolved in Cremophor EL/alcohol (90:10) (volume:volume), respectively, by brief sonication on ice, then freshly diluted 10-fold in saline solution (9% Cremophor EL; 1% ETOH and 90% saline) to give a final concentration of 4 mg/ml, 2 mg/ml and 1 mg/ml, respectively, before injection. 100 μL of Compound A solution at a concentration of […] was administered via i.p. to mice (per 20 grams of body weight), thus yielding a dose of 20 mg/kg (body weight), 10 mg/kg (body weight), and 5 mg/kg (body weight), respectively. The control vehicle was 9% Cremophor EL/1% ETOH/90% saline. […]

## CC(=O)Nc1ccc(C(=O)NC(C)(C)C)cc1 [Compound A, N-tert-butyl-4-acetamidobenzamide]
[1]
  Kp at 24 h: 0.88 ± 0.09
iNOS
  inflammatory marker iNOS in the region of the corticospinal tract vs untreated control: decreased
[2]; SCI Study No. 1, 14 day dorsal hemisection (1.5 mm), i.p. BID 5 days, 75% PEG200 formulation
  neurological function, BBB score: significant improvement in neurological function
[2]; SCI Study No. 2, 21 day over dorsal hemisection (2 mm), 20 mg/kg BID i.p. 5 days, 75% PEG200 formulation
  neurological function, BBB score: significant improvement in neurological function
[2]; SCI Study No. 3, 5 week over dorsal hemisection, 20 mg/kg BID i.p. 5 days, 50% PEG400/25% ETOH/25% dH2O, 20 mg/kg
  neurological function, BBB score: significant improvement in neurological function; also recorded: robust acute and long-term effects up to 5 weeks
[3]; 9% Cremophor EL, 1% ETOH, 90% saline vehicle
  solubility in 9% Cremophor EL, 1% ETOH and 90% saline: quite soluble
[3]; 75% PEG-200 vehicle
  solubility in 75% PEG-200: not soluble
